Entries after “also recorded” stand apart in the source; their conditions may differ. Read-outs that look alike come from different tables or passages of the source.
What was measured:
SmSOD [1] = target: T1, SmSOD (Streptococcus mutans serotype c, UniProt P09738); test: SOD activity assay (inhibition of cytochrome c reduction, xanthine/xanthine oxidase method) with SmSOD; format: biochemical
T1 construct: His-tail; made in house; host or cells: Escherichia coli BL21(DE3), vector vSmSOD (pET-22b(+)-derived)
Source text: (§1) Purified recombinant forms of SmSOD and StSOD were obtained through a heterologous expression system constituted by the Escherichia coli BL21(DE3) strain transformed with appropriate expression vectors, vSmSOD [11] or vStSOD [12]. These pET-22b(+)- or pET-28b(+)-derived plasmids led to the production of recombinant forms of SmSOD or StSOD, respectively fused to a His-tail, useful for their one-step purification by affinity chromatography, as previously described [11, 12]. The improvement of Mn uptake by SmSOD was realised as previously described [11, 12, 13]. The resulting metal (Fe and Mn) content in the cambialistic enzyme was determined by graphite furnace atomic absorption spectrometry with a Shimadzu ACS-6100 auto sampler [46]. Fe-SOD from Escherichia coli (cat. SRP6107) and the Cu/Zn-SOD from bovine erythrocytes (cat. 574594) were purchased from Sigma–Aldrich. A recombinant form of the eukaryal Mn–SOD from rat mitochondria was prepared as previously described [19]. Protein concentration was determined by the Bradford method, using bovine serum albumin as standard [47]. […] One unit of SOD activity was defined as the amount of enzyme that caused 50% inhibition of cytochrome c reduction.

[2] = target: T2, Fe-SOD from Escherichia coli (Escherichia coli, UniProt P0AGD3); test: SOD activity assay with Fe-SOD; format: biochemical
T2 construct: purchased Sigma–Aldrich SRP6107
Source text: as §1

[3] = target: T3, Mn–SOD from rat mitochondria (Rattus norvegicus, UniProt P07895); test: SOD activity assay with Mn-SOD; format: biochemical
T3 construct: made in house
T3 sequence (P07895 25-222): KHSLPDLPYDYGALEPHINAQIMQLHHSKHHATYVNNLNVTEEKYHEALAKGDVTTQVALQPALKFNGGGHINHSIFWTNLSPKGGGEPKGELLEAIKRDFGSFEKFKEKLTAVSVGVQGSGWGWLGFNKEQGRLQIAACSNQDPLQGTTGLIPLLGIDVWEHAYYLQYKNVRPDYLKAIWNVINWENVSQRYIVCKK
Source text: as §1

[4] = target: T4, Cu/ZnSOD from bovine erythrocytes (Bos taurus, UniProt P00442); test: SOD activity assay with Cu/Zn-SOD; format: biochemical
T4 construct: the Cu/Zn-SOD from bovine erythrocytes (cat. 574594) were purchased from Sigma–Aldrich; purchased Sigma–Aldrich 574594; host or cells: bovine erythrocytes
Source text: as §1

SmSOD homodimer = target: T5, SmSOD homodimer (Streptococcus mutans serotype c, UniProt P09738); test: Size exclusion chromatography (gel-filtration) of SmSOD
T5 construct: His-tail; made in house; host or cells: Escherichia coli BL21(DE3), vector vSmSOD (pET-22b(+)-derived)
Description: The oligomerization status of SmSOD was analyzed by gel-filtration on a Superdex^TM 75 10/300 GL column (GE Healthcare) connected to an FPLC^TM system. The column was equilibrated and eluted at 0.5 mL/min at room temperature (20–24 °C) with a 20 mM Tris•HCl buffer, pH 7.8, containing 150 mM KCl and 1% (v/v) DMSO. However, where indicated, the equilibration and elution buffer also contained 200 µM inhibitor. The protein molecular mass standards used for calibration of the size exclusion chromatography were bovine serum albumin (68 kDa), egg albumin (46 kDa), carbonic anhydrase (30 kDa) and cytochrome c (12.4 kDa).
Figure 4 Effect of ALS-31 on gel-filtration of SmSOD. A protein sample of SmSOD, 63 µM in 20 mM Tris•HCl buffer, pH 7.8, supplemented with 150 mM KCl and 1% (v/v) DMSO, was untreated or incubated at room temperature for 20 min with 200 µM ALS-31. The protein sample was then loaded on a Superdex 75 10/300 column and the elution profile was followed by a continuous absorbance monitoring at 280 nm. Untreated SmSOD (black line); SmSOD incubated with 200 µM ALS-31 without (green line) or after the addition of 200 µM ALS-31 in the elution buffer (red line). The elution volumes of bovine serum albumin (9.56 mL), egg albumin (10.44 mL), carbonic anhydrase (11.72 mL) and cytochrome c (13.51 mL), used as standard protein markers, are indicated by inverted triangles. Their position was unaffected by the addition of ALS-31 in equilibration and elution buffer.

SmSOD [5] = target: T1, SmSOD; test: Gel electrophoresis of SmSOD under not denaturing conditions; settings: 7 to 51 µM protein, preincubation with 488 µM compound; not shown
Source text: The putative reversible interaction between SmSOD and ALS-31 was further investigated through the behaviour of this enzyme in gel electrophoresis. […] Therefore, the reversible and non-covalent interaction between SmSOD and ALS-31 allowed the disassemblage of the enzyme and consequently its inhibition, only when a proper concentration of the inhibitor remained in contact with the enzyme.

[6] = test system: fibroblast cell line BJ-5ta; test: Colony-forming assay; format: cell-based, human; settings: up to 100 µM
Description: The cell line BJ-5ta, a human skin fibroblast immortalised with the human telomerase reverse transcriptase (Cell Culture Facility of CEINGE, Naples, Italy), was cultured in a 4:1 mixture of DMEM and Medium 199 supplemented with 4 mM L-glutamine, 4.5 g/L glucose, 1.5 g/L sodium bicarbonate, 10% FBS, 100 IU/mL penicillin G and […] streptomycin in a humidified incubator at 37 °C under 5% CO2 atmosphere. Cells were split and seeded every 3 days and used during their exponential phase of growth. Cell treatments were usually carried out after 24 h from plating. To obtain total protein extracts from BJ5-ta, cells were seeded into six-well plates (3 × 10^5 cells/plate) for 24 h at 37 °C and then treated with ALS-31 or 0.5% (v/v) DMSO. After treatment, cells were harvested, washed with PBS and then lysed in ice-cold modified radio immunoprecipitation assay (RIPA) buffer (50 mM Tris•HCl, pH 7.4, 150 mM NaCl, 1% Nonidet P-40, 0.25% sodium deoxycholate, 1 mM Na3VO4 and 1 mM NaF), supplemented with protease inhibitors and incubated for 30 min on ice. […]
A colony-forming assay was performed as previously described, with some modifications. […] Cells were photographed with a digital camera (Canon PowerShot G9); the number of colonies (≥50 cells per colony) was counted using ImageJ 1.42q software.

T1 sequence (P09738 2-203): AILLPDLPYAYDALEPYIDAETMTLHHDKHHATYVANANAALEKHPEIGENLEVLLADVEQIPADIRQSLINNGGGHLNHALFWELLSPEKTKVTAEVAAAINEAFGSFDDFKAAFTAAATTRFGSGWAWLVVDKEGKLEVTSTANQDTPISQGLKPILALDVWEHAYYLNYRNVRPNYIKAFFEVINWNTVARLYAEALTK
T5 sequence (P09738 2-203): as above
T4 sequence (P00442 whole entry): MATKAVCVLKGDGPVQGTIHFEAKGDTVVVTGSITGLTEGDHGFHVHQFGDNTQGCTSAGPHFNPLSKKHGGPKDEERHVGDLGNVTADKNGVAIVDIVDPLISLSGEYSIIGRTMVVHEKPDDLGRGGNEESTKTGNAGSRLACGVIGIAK
T2 sequence (P0AGD3 2-193): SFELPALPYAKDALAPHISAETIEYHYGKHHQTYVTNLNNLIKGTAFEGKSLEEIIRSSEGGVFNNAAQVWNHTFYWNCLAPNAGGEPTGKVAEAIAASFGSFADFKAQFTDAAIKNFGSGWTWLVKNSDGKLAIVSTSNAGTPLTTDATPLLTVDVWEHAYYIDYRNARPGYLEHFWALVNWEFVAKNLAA

## CSCCC(NC(=O)COc1ccc2c3c(c(=O)oc2c1)CCCC3)C(=O)NCCC(=O)O (centres unmarked) [ALS-31]
SmSOD [1]; 20 µM compound, activity of SmSOD in the absence of compound equal to 100, read-out: Residual SOD Activity (%) in the Presence of [Compound]
  remaining activity at 20 µM: 92%
SmSOD [1]; 50 µM compound, activity of SmSOD in the absence of compound equal to 100, Table 1, read-out: Residual SOD Activity (%) in the Presence of [Compound]
  remaining activity at 50 µM: 71%
SmSOD [1]; Mn-basal SmSOD, read-out: IC50 (concentration leading to 50% inhibition of SmSOD activity)
  IC50: 159 µM
SmSOD [1]; Mn-enriched SmSOD, basal Mn content 2.7-fold improved after metal exchange, read-out: IC50 in the Mn-enriched enzyme
  IC50: 262 ± 11 µM
SmSOD [1]; read-out: Residual SOD Activity (%) in the Presence of [Compound]
  remaining activity at 100 µM: 56%
SmSOD [1]; screening concentrations or inhibition profile up to 300 µM
  effect on SmSOD activity (in words): dose-dependent reduction; also recorded: evident dose-dependent inhibition
[2]
  IC50: 123 ± 20 µM
[3]
  IC50: 161 ± 56 µM
[4]
  IC50: 146 ± 25 µM
SmSOD homodimer; 200 µM compound in equilibration and elution buffer, untreated SmSOD 51.8 kDa
  calculated molecular mass of SmSOD major peak: 23.2 kDa
SmSOD homodimer; 200 µM compound in protein sample and elution buffer
  quaternary structure of SmSOD in gel-filtration: dissociation of the SmSOD homodimer in two monomers
SmSOD homodimer; SmSOD incubated with 200 µM compound before loading, no compound in elution buffer
  elution of SmSOD compared with untreated sample: almost identical elution
SmSOD [5]
  electrophoretic mobility of SmSOD: no change
[6]
  toxicity for growth / viability of fibroblast cell line BJ-5ta (colony formation): not affected; also recorded: not toxic
